Laboratory results reported in PMC9414910, “Optimized ^68Ga-Labeled Urea-Based PSMA-Targeted PET Tracers for Prostate Cancer” (Pharmaceuticals, 2022).

Key:
22Rv1 cells (mild PSMA+) = experiment: Cell uptake / binding in 22Rv1 cells; format: cell-based, human; settings: 60 min incubation, 37 °C
Text: Cell lines were kindly provided by the stem cell bank of the Chinese Academy of Sciences. The human prostate cancer epithelial cell lines 22Rv1 (mild PSMA+) and PC-3 (with no PSMA receptor) were used to evaluate the specific cell-binding affinity of the radiotracers, and the results were expressed as percentages of injected activity, IA%/10^6.
Cell Lines and Culture Condition
Cell lines were kindly provided by the stem cell bank, the Chinese Academy of Sciences. The human prostate cancer cell lines 22Rv1 ( mild PSMA positive) and PC3 (PSMA negative) were cultured in RPMI 1640 medium or F12K medium (CORNING, America), supplemented with 10% Fetal Bovine Serum
(GIBCO, The Netherlands) and 1% penicillin-streptomycin (CORNING, America) in a humidified incubator at 37 °C under 5% CO2. Each cell line was passaged when it was at around 80-90% confluence, and harvested using trypsin-ethylenediaminetetraacetic acid (trypsin-EDTA; 0.25% trypsin, 0.02% EDTA, all from KeyGEN BioTECH).
Cells were seeded separately in 24 well plates (1 x 10^5 cells in 1 mL medium/well) and incubated overnight, the medium was changed 2 h before the experiment. For the binding experiments, cells were incubated with novel […]
min, 30 min and 60 min (6 wells/time point). After incubation, the medium was removed and the cells were washed twice with ice-cold phosphate-buffered saline (0.5 mL). Finally, the cells were lysed by NaOH (0.5 M, 0.5 mL). Coincubation of 2-(phosphonomethyl) pentane-1,5-dioic acid […]
(2-PMPA) solution (2 μg/well) and each radiotracer for 60 min was conducted as the blocking experiment. The radioactivity of cells was measured by a γ-counter. The studies were performed in triplicate and the results were reported as the percentage injected activity (IA%/10^6 cells). […]

[1] = Blood pharmacokinetics in male ICR mice; format: in vivo; settings: 7.4 MBq i.v., two-compartment model
Method: Injection of novel radiotracers or [68Ga]Ga-PSMA-617 or [68Ga]Ga-PSMA-11 […]
mice (5 mice/group), and the blood sample (5 μL) of each mouse was collected by cutting down the tail end at different time points post injection. The radioactivity of blood samples were measured by a γ-counter and the pharmacokinetics data was calculated using the WinNonlin software.
Figure S3. Time-activity curves of the blood samplesafter injection of 7.4 MBq of [68Ga]Ga-PSMA-4PY (A), [68Ga]Ga-PSMA-Q (B),[68Ga]Ga-PSMA-P (C), [68Ga]Ga-PSMA-617 (D), [68Ga]Ga-PSMA-11 (E), [68Ga]Ga-PSMA-Q-1 (F), [68Ga]Ga-PSMA-Q-2 (G) and [68Ga]Ga-PSMA-Q-3 (H).
(1 picture or pasted object on this page, not shown here)

22Rv1 tumor-bearing mice = experiment: Biodistribution in 22Rv1 tumor-bearing mice; settings: for Uptake Blood, Mean / Uptake Bone, Mean / Uptake Heart, Mean / Uptake Kidney, Mean / Uptake Liver, Mean / Uptake Lung, Mean / Uptake Muscle, Mean / Uptake Spleen, Mean / Uptake Tumor (22Rv1), Mean: 0.74 MBq, n = 3
Method: (§1) The animal studies were approved by the institutional animal care and use committee of the Chinese PLA General Hospital. Healthy male ICR mice were injected with either a novel radiotracer (37 MBq in 150 μL) or saline (150 μL) for the radiotoxicity evaluation. […] Biodistribution and micro-PET studies were performed on 22Rv1 and PC-3 xenograft models, and 2-PMPA was used as the PSMA blocker (all details are shown in the Supplementary Materials).
BALB/c nude mice (male, 4-6 weeks) were inoculated subcutaneously with […]
100 mm3, the mice underwent biodistribution study and Micro-PET imaging.
The 22Rv1 tumor-bearing mice were injected with each novel radiotracer or […]
[…] Mice were sacrificed at different time points p.i. (10 min, 30 min, 60 min), tumors and interested organs were harvested, weighed and measured by a γ-counter, the results were expressed as the percentage of injected dose per gram (ID%/g).
Table S1. Uptake values for ex vivo tissues of [ 68Ga]Ga-PSMA-Q (0.74 MBq/mice) in 22Rv1 tumor-bearing mice (10, 30 and 60 min p.i., n = 3/time point).

22Rv1 tumors = experiment: Micro-PET imaging in 22Rv1 tumor-bearing mice; format: in vivo; settings: 22Rv1 tumor, 60 min p.i., 7.4 MBq
Method: as §1
Table S9. Tumor-to-mu scle (T/M) ratio and tumor- to-kidney (T/K) rati o of radiotracers at 60 min p.i.
The Mice bearing 22Rv1 and PC-3 (n = 3/group) xenograft tumors were […]
Co-injection with 2-PMPA (50 μ g) and each novel tracer (7.4 MBq in 150 μL) was used for blocking. Then the mice were anesthetized with 3% (v/v) isoflurane and underwent Micro-PET scans with continuous 1% (v/v) isoflurane. The images were acquired at 60 min p.i.. In comparison, […]
into another group of mice (n = 3), and Micro-PET schedule was performed as […]
Imaging was performed on a Super Nova PET/CT scanner using a 100-mm-transaxial field of view for PET and 110-mm for CT.
Three-dimensional ordered-subsets expectation maximization reconstruction

[2] = biodistribution, 22Rv1 tumor-bearing mice, 60 min p.i.

Structure (SMILES) | Uptake in 22Rv1 cells (22Rv1 cells (mild PSMA+)) | Elimination half-life [1] | Uptake Blood, Mean (22Rv1 tumor-bearing mice; 10 min p.i.) | Uptake Bone, Mean (22Rv1 tumor-bearing mice; 10 min p.i.) | Uptake Heart, Mean (22Rv1 tumor-bearing mice; 10 min p.i.) | Uptake Kidney, Mean (22Rv1 tumor-bearing mice; 10 min p.i.) | Uptake Liver, Mean (22Rv1 tumor-bearing mice; 10 min p.i.) | Uptake Lung, Mean (22Rv1 tumor-bearing mice; 10 min p.i.) | Uptake Muscle, Mean (22Rv1 tumor-bearing mice; 10 min p.i.) | Uptake Spleen, Mean (22Rv1 tumor-bearing mice; 10 min p.i.) | Uptake Tumor (22Rv1), Mean (22Rv1 tumor-bearing mice; 10 min p.i.) | Uptake Blood, Mean (22Rv1 tumor-bearing mice; 30 min p.i.) | Uptake Bone, Mean (22Rv1 tumor-bearing mice; 30 min p.i.) | Uptake Kidney, Mean (22Rv1 tumor-bearing mice; 30 min p.i.) | Uptake Liver, Mean (22Rv1 tumor-bearing mice; 30 min p.i.) | Uptake Lung, Mean (22Rv1 tumor-bearing mice; 30 min p.i.) | Uptake Muscle, Mean (22Rv1 tumor-bearing mice; 30 min p.i.) | Uptake Spleen, Mean (22Rv1 tumor-bearing mice; 30 min p.i.) | Uptake Tumor (22Rv1), Mean (22Rv1 tumor-bearing mice; 30 min p.i.) | Uptake Blood, Mean (22Rv1 tumor-bearing mice; 60 min p.i.) | further results
O=C([O-])CN(CCN(CC(=O)[O-])Cc1cc(CCC(=O)NCCCCCC(=O)NCCCC[C@H](NC(=O)N[C@@H](CCC(=O)O)C(=O)O)C(=O)O)ccc1[O-])Cc1cc(CCC(=O)O)ccc1[O-].[68Ga+3].[OH3+] [[^68Ga]Ga-PSMA-11, reference compound] | 3.19 ± 0.27 IA%/10^6 | 16.69 ± 1.77 min | 2.28 ID%/g | 0.72 ID%/g | 2.54 ID%/g | 10.20 ID%/g | 1.53 ID%/g | 0.77 ID%/g | 0.81 ID%/g | 0.99 ID%/g | 1.61 ID%/g | 0.91 ID%/g | 0.30 ID%/g | 2.76 ID%/g | 0.78 ID%/g | 0.53 ID%/g | 0.30 ID%/g | 0.53 ID%/g | 1.90 ID%/g | 0.22 ID%/g | Uptake Bone, Mean (22Rv1 tumor-bearing mice; 60 min p.i.): 0.17 ID%/g; Uptake Heart, Mean (22Rv1 tumor-bearing mice; 60 min p.i.): 0.53 ID%/g; Uptake Kidney, Mean (22Rv1 tumor-bearing mice; 60 min p.i.): 1.61 ID%/g; Uptake Liver, Mean (22Rv1 tumor-bearing mice; 60 min p.i.): 0.47 ID%/g; Uptake Lung, Mean (22Rv1 tumor-bearing mice; 60 min p.i.): 0.21 ID%/g; Uptake Muscle, Mean (22Rv1 tumor-bearing mice; 60 min p.i.): 0.14 ID%/g; Uptake Spleen, Mean (22Rv1 tumor-bearing mice; 60 min p.i.): 0.40 ID%/g; Uptake Tumor (22Rv1), Mean (22Rv1 tumor-bearing mice; 60 min p.i.): 2.38 ID%/g; SUVmax of tumor (22Rv1 tumors): 0.76 ± 0.18
O=C([O-])CN1CCN(CC(=O)[O-])CCN(CC(=O)NCCCCCC(=O)NC(Cc2cnc3ccccc3c2)C(=O)NCCCCC(NC(=O)NC(CCC(=O)O)C(=O)O)C(=O)O)CCN(CC(=O)O)CC1.[68Ga+3] (stereo not drawn) [[^68Ga]Ga-PSMA-Q-2] | 2.99 ± 0.15 IA%/10^6 | 20.22 ± 0.97 min | 1.87 ID%/g | 1.12 ID%/g | 1.76 ID%/g | 13.88 ID%/g | 1.62 ID%/g | 0.83 ID%/g | 0.65 ID%/g | 2.34 ID%/g | 1.34 ID%/g | 0.69 ID%/g | 0.71 ID%/g | 20.74 ID%/g | 1.21 ID%/g | 0.61 ID%/g | 0.37 ID%/g | 1.41 ID%/g | 1.87 ID%/g | 0.47 ID%/g | Uptake Heart, Mean (22Rv1 tumor-bearing mice; 30 min p.i.): 1.08 ID%/g; Uptake Bone, Mean (22Rv1 tumor-bearing mice; 60 min p.i.): 0.53 ID%/g; Uptake Heart, Mean (22Rv1 tumor-bearing mice; 60 min p.i.): 0.50 ID%/g; Uptake Kidney, Mean (22Rv1 tumor-bearing mice; 60 min p.i.): 26.62 ID%/g; Uptake Liver, Mean (22Rv1 tumor-bearing mice; 60 min p.i.): 0.52 ID%/g; Uptake Lung, Mean (22Rv1 tumor-bearing mice; 60 min p.i.): 0.55 ID%/g; Uptake Muscle, Mean (22Rv1 tumor-bearing mice; 60 min p.i.): 0.16 ID%/g; Uptake Spleen, Mean (22Rv1 tumor-bearing mice; 60 min p.i.): 1.05 ID%/g; Uptake Tumor (22Rv1), Mean (22Rv1 tumor-bearing mice; 60 min p.i.): 2.15 ± 0.33 ID%/g; Uptake Tumor (22Rv1), Mean (22Rv1 tumor-bearing mice; 60 min p.i., listed as [68Ga]Ga-PSMA-Q-2): 2.15 ID%/g; Tumor-to-kidney (T/K) ratio (22Rv1 tumor-bearing mice; [2]): 0.08 ± 0.02; Tumor-to-muscle (T/M) ratio (22Rv1 tumor-bearing mice; [2]): 13.41 ± 0.39; Clearance profile in the kidneys (22Rv1 tumor-bearing mice; within 60 min p.i.): continuously accumulated in the kidneys; SUVmax of tumor (22Rv1 tumors): 0.47 ± 0.11
